Laboratory results from paper PMC5522529, “Mechanisms of Paradoxical Activation of AMPK by the Kinase Inhibitors SU6656 and Sorafenib” (Cell Chemical Biology, 2017).

Legend:
[1] = target: T1, α2β2γ1 complex (Homo sapiens, UniProt P54619+P54646); assay: Inactivation of full-length α2β2γ1 complex by PP2Cα; format: biochemical; settings: 5 mM ATP, AMP 2 mM, SU6656 up to 10 μM
T1 construct: bacterially expressed α2-KD or a full-length α2β2γ1 complex, both of which had been phosphorylated using CaMKK2; made in house; host or cells: bacteria
T1 sequence (P54646 whole entry): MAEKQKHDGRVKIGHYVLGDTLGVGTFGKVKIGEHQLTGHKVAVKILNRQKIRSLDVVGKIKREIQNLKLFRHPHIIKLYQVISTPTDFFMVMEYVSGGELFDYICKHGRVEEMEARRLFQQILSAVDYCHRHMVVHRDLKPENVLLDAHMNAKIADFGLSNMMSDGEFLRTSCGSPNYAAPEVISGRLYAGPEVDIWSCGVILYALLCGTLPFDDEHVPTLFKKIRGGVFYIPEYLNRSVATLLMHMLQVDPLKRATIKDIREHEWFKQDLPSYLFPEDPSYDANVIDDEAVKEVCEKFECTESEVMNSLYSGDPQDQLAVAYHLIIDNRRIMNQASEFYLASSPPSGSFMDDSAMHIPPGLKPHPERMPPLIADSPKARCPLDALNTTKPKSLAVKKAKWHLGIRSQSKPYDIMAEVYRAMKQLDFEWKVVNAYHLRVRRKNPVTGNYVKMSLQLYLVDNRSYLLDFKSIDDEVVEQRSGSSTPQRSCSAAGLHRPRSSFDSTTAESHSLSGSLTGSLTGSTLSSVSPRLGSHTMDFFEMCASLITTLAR
T1 sequence (O43741 whole entry partner): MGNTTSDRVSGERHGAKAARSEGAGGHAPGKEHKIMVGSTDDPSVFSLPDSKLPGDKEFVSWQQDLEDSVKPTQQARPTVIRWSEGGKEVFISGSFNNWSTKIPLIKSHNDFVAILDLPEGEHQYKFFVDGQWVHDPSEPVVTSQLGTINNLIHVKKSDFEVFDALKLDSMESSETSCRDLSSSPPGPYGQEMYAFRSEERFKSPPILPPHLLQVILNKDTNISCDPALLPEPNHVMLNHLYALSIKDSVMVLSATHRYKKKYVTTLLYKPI
T1 sequence (P54619 whole entry): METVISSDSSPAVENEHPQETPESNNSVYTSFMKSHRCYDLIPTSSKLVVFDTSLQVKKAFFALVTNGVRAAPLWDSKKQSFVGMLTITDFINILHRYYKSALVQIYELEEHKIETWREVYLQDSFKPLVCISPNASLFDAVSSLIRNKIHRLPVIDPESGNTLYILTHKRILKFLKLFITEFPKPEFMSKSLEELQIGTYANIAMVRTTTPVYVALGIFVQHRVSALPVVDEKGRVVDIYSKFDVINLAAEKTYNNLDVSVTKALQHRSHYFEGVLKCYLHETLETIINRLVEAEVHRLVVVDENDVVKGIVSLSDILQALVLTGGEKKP

[2] = system: Erk1/Erk2; assay: Erk1/Erk2 phosphorylation in HEK293 cells (western blot); format: cell-based, human; settings: SU6656 100 μM, PP2 100 nM
[3] = system: AMPK-related kinases SIK1, SIK2, SIK3, SNARK, MARK2/3 and MARK4; assay: AMPK-related kinase activity in HeLa cells stably expressing LKB1; format: cell-based, human; settings: HeLa cells expressing LKB1, 100 μM, 1 hr
Protocol: Figure 1 SU6656 Activates AMPK but Not AMPK-Related Kinases (A) HEK293 cells were incubated with the indicated concentrations of SU6656 or berberine (300 μM) for 1 hr; total AMPK activity was assayed in immunoprecipitates (top; mean ± SEM, n = 4), and phosphorylation of AMPK (Thr172), ACC (Ser80), and Raptor (Ser792) analyzed by western blotting (bottom; n = 2). (B) HEK293 cells were incubated with 100 μM SU6656 (1 hr), AMPK complexes containing α1, α2, β1, and β2 immunoprecipitated using isoform-specific antibodies, and AMPK activity measured (mean ± SEM, n = 4). (C) HeLa cells stably expressing LKB1 ([Fogarty et al., 2010]) were incubated with 100 μM SU6656 for 1 hr, AMPK or individual ARKs immunoprecipitated, and kinase assays carried out (antibodies that distinguish MARK2/MARK3 were not available, so they were assayed together). Results are means ± SEM (n = 2). In all panels, asterisks indicate significant differences from controls without SU6656. *p < 0.05, **p < 0.01, ****p < 0.0001. […]

[4] = system: LKB1 versus AMPK; parameters: method as in MRC Kinase Inhibitor Database; settings: ref MRC Kinase Inhibitor Database; cited from earlier work
[5] = system: Erk1/2; assay: Erk1/2 phosphorylation in SYF cells; format: cell-based, mouse; settings: SU6656 100 μM, PP2 100 nM
[6] = target: T2, α2-KD (Homo sapiens, UniProt P54646); assay: Inactivation of α2-KD by PP2Cα; format: biochemical; settings: 5 mM ATP, AMP 2 mM, SU6656 up to 10 μM
T2 construct: amplifying residues 1-310 with 5' BamH1 and 3' Xho1 sites; made in house; host or cells: bacteria
T2 sequence (P54646 1-310): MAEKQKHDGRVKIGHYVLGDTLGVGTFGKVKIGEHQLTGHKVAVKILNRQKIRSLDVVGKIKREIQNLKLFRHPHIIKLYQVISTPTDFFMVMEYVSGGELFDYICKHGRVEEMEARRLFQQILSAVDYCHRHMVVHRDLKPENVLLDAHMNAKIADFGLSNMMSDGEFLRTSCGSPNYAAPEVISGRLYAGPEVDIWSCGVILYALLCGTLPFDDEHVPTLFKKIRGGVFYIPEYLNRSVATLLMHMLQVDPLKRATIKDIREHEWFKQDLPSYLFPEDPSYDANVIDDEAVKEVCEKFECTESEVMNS
Protocol: Figure 5 SU6656 Promotes AMPK Activation by Binding to the Catalytic Site: Studies in Cell-Free Assays (A) Effect of increasing concentrations of SU6656 ± 1 mM AMP in the presence of 2 mM ATP on the activity of purified rat liver AMPK. (B) Effect of ATP concentration on kinase activity of α2-KD in the presence of increasing concentrations of SU6656. Results (mean, n = 2) were fitted to the equation Y= (Vmax × X)/(Km × (1 + I/Ki) + X), where Y is the activity, X is the ATP concentration, I is the concentration of SU6656, and Ki is the inhibitory constant for SU6656. The curves were generated using this equation with the best-fit values of Vmax, Km, and Ki (shared between all four curves) quoted in the main text. (C) Inhibition of phosphorylated α2-KD (WT or AT mutant) by SU6656. […] The reduced inhibition at 10 μM SU6656 may be due to the inhibitor coming out of solution, so those data were not used for curve fitting. (D and E) Effect of increasing concentrations of SU6656 on activity (D) and Thr172 phosphorylation (E) induced by LKB1 with unphosphorylated α2-KD (WT/AT mutant). Results in (D) are mean ± SEM (n = 3); and were fitted to same equation as Figure 4C. […] The complexes (which have low basal phosphorylation due to lack of LKB1 in HeLa cells) were incubated with or without a limiting amount of LKB1, AMP (200 μM) or SU6656 (3 μM) for 10 min and AMPK activity determined. […]

protection against inactivation by PP2Cα [1]: did not protect against inactivation | protection against inactivation by PP2Cα [6]: did not protect against inactivation
Compound: CN(C)S(=O)(=O)c1ccc2c(c1)/C(=C/c1cc3c([nH]1)CCCC3)C(=O)N2 [SU6656]
Erk1/Erk2 phosphorylation [2]: reduced phosphorylation of Erk1/Erk2 | activity of AMPK-related kinases (ARKs) [3]: none of the ARKs assayed were activated | potency of LKB1 inhibition relative to AMPK inhibition [4]: inhibition of LKB1 was less potent than that of AMPK | Erk1/2 phosphorylation [5]: inhibited Erk1/2 phosphorylation
